Assay results taken from patent publication US11596636B2, “Tailored combinatorial epigenetic therapies for P53 gain-of-function tumors” (The Trustees of the University of Pennsylvania, priority 2014, dated 2023).
Each block holds one compound with its values, some of them ahead of it.

Legend:
[1] = target: T1, menin-MLL1 interaction in MDAH041 cells (p53 null) (Homo sapiens, UniProt O00255); assay: Endogenous co-IP of Menin and MLL1 in LFS MDAH041 cells; type: cell-based; conditions: different concentrations, vs DMSO
T1 construct: endogenous in cells; host or cells: LFS MDAH087 (p53 R248W) and MDAH041 (p53 null) cells
T1 sequence (O00255 1-610): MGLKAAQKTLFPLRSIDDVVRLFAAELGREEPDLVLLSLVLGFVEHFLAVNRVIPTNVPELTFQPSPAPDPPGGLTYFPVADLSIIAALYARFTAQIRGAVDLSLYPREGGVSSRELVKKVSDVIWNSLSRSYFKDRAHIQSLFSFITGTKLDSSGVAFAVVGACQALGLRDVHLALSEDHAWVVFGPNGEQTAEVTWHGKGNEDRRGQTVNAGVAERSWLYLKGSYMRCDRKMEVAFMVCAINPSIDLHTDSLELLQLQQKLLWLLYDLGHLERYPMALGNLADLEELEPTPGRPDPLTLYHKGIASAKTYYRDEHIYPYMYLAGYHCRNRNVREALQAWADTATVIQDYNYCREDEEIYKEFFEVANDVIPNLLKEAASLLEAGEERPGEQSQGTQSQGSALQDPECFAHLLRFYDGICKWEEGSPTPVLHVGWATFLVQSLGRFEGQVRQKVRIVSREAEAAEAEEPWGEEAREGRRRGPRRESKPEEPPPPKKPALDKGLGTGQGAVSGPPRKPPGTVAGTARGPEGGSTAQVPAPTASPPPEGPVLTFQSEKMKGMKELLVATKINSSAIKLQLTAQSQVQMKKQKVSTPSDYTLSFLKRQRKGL

[2] = target: T2, menin-MLL1 interaction in MDAH087 cells (p53 GOF) (Homo sapiens, UniProt O00255); assay: Endogenous co-IP of Menin and MLL1 in LFS MDAH087 cells; type: cell-based; conditions: different concentrations, vs DMSO
T2 construct: endogenous in cells; host or cells: LFS MDAH087 (p53 R248W) and MDAH041 (p53 null) cells
T2 sequence (O00255 1-610): T1 sequence (O00255 1-610)
Experimental: (FIG. 10A) Endogenous co-IP of Menin and MLL1 in LFS MDAH087 cells upon treatment of DMSO or different concentrations of ISC-30. (FIG. 10B) & (FIG. 10C) Growth curve analysis of LFS (FIG. 10B) MDAH087 and (FIG. 10C) MDAH041 cells treated with DMSO, […] ISC-30 Menin inhibitor. (FIG. 10D) & (FIG. 10E) Growth curve analysis of LFS (FIG. 10D) MDAH087 and (FIG. 10E) MDAH041 cells treated with DMSO, […], or 20 μM MI-2-2 Menin inhibitor. (FIG. 10F) and (FIG. 10G) Growth curve analysis of LFS (FIG. 10F) MDAH087 and (FIG. 10G) MDAH041 cells treated with DMSO, 2 μM, or 4 μM OICR-9429 WDR5 inhibitor.
Flag tagged ETS2 protein was expressed in HEK293T cells, which was then subjected to immunoprecipitation with Flag antibody conjugated Dynabeads. Then after washes, HA tagged WT or GOF p53 (generated by in vitro translation method (Thermo #88881)) was added to co-immunoprecipitate with Flag-ETS2. Endogenous co-IP experiments were performed in buffer containing: 20 mM Tris, pH 8.0, 137 mM NaCl, 1 mM MgCl2, 1 mM CaCl2, 1% NP-40, 10% glycerol, plus complete protease and phosphatase inhibitor (without EDTA), plus 12.5 U/ml benzonase (Novagen, 70746).

[3] = test system: AT-1 cells (MLL-AF9 leukemia cell line); assay: Growth analysis of AT-1 cells; type: cell-based, mouse; conditions: 10 μM ISC-30 vs DMSO
Experimental: FIG. 15, comprising FIG. 15A through FIG. 15G, depicts the results of example experiments. (FIG. 15A) Chemical structure of ISC-30 compound [N,N′-bis(4-aminophenyl)-N,N′-dimethylethylenediamine]. (CID: 193110, NCI: 129674, Chemical formula: C16H22N4 Molecular weight: 270.37) (FIG. 15B) His-SUMO-MeninΔ460-519 (Menin) was titrated into wells containing fluorescence polarization buffer and FITC-MLL peptide (1.5 nM) to allow fluorescence polarization monitoring and calculation of the binding affinity. (FIG. 15C) Wild-type (WT) or Mutant (Mut) competitor MLL peptides were titrated into wells containing fluorescence polarization butter, His-SUMO-MeninΔ460-519 (5 nM), and FITC-MLL peptide (1.5 nM) and the inhibition of fluorescence polarization was monitored and utilized to normalize the ISC30 inhibition. […] (FIG. 15D) Peptide displacement assay measuring ISC-30 inhibition of menin-MLL1 interaction by the decrease in fluorescence polarization (FP) signal of a FITC labeled MLL1 peptide upon ISC-30 induced dissociation from menin. […]
200,000 cells were seeded on 950 mm^2 surface area (one well of 6-well plate) on Day 0. Cell number was measured every two days with Countess Automated Cell Counter (Life Technologies) following its standard procedure, and then 200,000 cells were plated back for the next counting. […]

MDAH041 cells (p53 null) = assay: Growth curve analysis of LFS MDAH041 cells; type: cell-based, human; conditions: OICR-9429 2 μM or 4 μM, vs DMSO
Experimental: (§1) (FIG. 10A) Endogenous co-IP of Menin and MLL1 in LFS MDAH087 cells upon treatment of DMSO or different concentrations of ISC-30.
(§2) Li-Fraumeni Syndrome cell lines MDAH087 and MDAH041 were obtained from Dr. Michael A. Tainsky (Wayne State University, Detroit, Mich.) as a kind gift, and were cultured at 3% oxygen, in standard tissue culture medium.
(§3) 200,000 cells were seeded on 950 mm^2 surface area (one well of 6-well plate) on Day 0. Cell number was measured every two days with Countess Automated Cell Counter (Life Technologies) following its standard procedure, and then 200,000 cells were plated back for the next counting. For shRNA mediated knockdown experiments, cells were seeded seven days after the initial infection of shRNA-containing lentivirus, during which puromycin selection was completed and cells were already put back to normal growth medium. For small compound inhibitor treatment experiments, inhibitors were added on Day 0 as cells were seeded and refreshed every other day as cells were counted and plated back.

[4] = test system: Hoxa cluster genes in AT-1 cells (MLL-AF9 leukemia cell line); assay: HoxA5 and HoxA9 mRNA levels in AT-1 cells; type: cell-based, mouse; conditions: after 2 days of treatment, vs DMSO
Experimental: FIG. 15, comprising FIG. 15A through FIG. 15G, depicts the results of example experiments. (FIG. 15A) Chemical structure of ISC-30 compound [N,N′-bis(4-aminophenyl)-N,N′-dimethylethylenediamine]. (CID: 193110, NCI: 129674, Chemical formula: C16H22N4 Molecular weight: 270.37) (FIG. 15B) His-SUMO-MeninΔ460-519 (Menin) was titrated into wells containing fluorescence polarization buffer and FITC-MLL peptide (1.5 nM) to allow fluorescence polarization monitoring and calculation of the binding affinity. (FIG. 15C) Wild-type (WT) or Mutant (Mut) competitor MLL peptides were titrated into wells containing fluorescence polarization butter, His-SUMO-MeninΔ460-519 (5 nM), and FITC-MLL peptide (1.5 nM) and the inhibition of fluorescence polarization was monitored and utilized to normalize the ISC30 inhibition. All measurements were blanked by subtracting the background signal taken from wells containing only buffer. mP=millipolarization. (FIG. 15D) Peptide displacement assay measuring ISC-30 inhibition of menin-MLL1 interaction by the decrease in fluorescence polarization (FP) signal of a FITC labeled MLL1 peptide upon ISC-30 induced dissociation from menin. (FIG. 15E) HoxA5 and HoxA9 mRNA levels after 2 days of ISC-30 or DMSO (vehicle control) treatment in AT-1 cells (mouse MLL-AF9 leukemia cell line). (FIG. 15F) Growth analysis of AT-1 cells treated with DMSO or 10 μM ISC-30. […]

[5] = test system: MDAH087 cells (p53 R248W, GOF p53); assay: Growth curve analysis of LFS MDAH087 cells; type: cell-based, human; conditions: OICR-9429 2 μM or 4 μM, vs DMSO
Experimental: as §1, §2, §3

[6] = target: T3, menin-MLL1 interaction (His-SUMO-Menin-Δ460-519, FITC-MLL peptide) (Homo sapiens, UniProt O00255, DEL460-519); assay: Fluorescence polarization competition assay, FITC-MLL peptide displacement from menin; type: binding; conditions: FITC-MLL peptide 1.5 nM, His-SUMO-Menin-Δ460-519 5 nM
T3 construct: made in house; host or cells: Rosetta (DE3-pLysS) E. coli
T3 sequence (O00255 with tags, fused parts or gaps DEL460-519): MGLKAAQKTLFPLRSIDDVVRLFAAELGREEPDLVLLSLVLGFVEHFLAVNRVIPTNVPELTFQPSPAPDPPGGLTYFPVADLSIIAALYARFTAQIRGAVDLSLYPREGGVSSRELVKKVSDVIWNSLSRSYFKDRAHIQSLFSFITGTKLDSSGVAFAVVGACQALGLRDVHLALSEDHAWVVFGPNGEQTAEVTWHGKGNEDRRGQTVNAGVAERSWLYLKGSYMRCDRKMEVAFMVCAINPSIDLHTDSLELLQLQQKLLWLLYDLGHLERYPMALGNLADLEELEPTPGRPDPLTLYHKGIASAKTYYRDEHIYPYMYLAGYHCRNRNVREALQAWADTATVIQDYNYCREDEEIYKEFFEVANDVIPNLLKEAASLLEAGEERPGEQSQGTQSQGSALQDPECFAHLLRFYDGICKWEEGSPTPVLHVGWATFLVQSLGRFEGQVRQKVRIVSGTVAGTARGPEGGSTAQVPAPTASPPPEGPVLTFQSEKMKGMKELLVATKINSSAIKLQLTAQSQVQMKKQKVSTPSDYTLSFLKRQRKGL
Experimental: FIG. 15, comprising FIG. 15A through FIG. 15G, depicts the results of example experiments. (FIG. 15A) Chemical structure of ISC-30 compound [N,N′-bis(4-aminophenyl)-N,N′-dimethylethylenediamine]. (CID: 193110, NCI: 129674, Chemical formula: C16H22N4 Molecular weight: 270.37) (FIG. 15B) His-SUMO-MeninΔ460-519 (Menin) was titrated into wells containing fluorescence polarization buffer and FITC-MLL peptide (1.5 nM) to allow fluorescence polarization monitoring and calculation of the binding affinity. (FIG. 15C) Wild-type (WT) or Mutant (Mut) competitor MLL peptides were titrated into wells containing fluorescence polarization butter, His-SUMO-MeninΔ460-519 (5 nM), and FITC-MLL peptide (1.5 nM) and the inhibition of fluorescence polarization was monitored and utilized to normalize the ISC30 inhibition. All measurements were blanked by subtracting the background signal taken from wells containing only buffer. mP=millipolarization. (FIG. 15D) Peptide displacement assay measuring ISC-30 inhibition of menin-MLL1 interaction by the decrease in fluorescence polarization (FP) signal of a FITC labeled MLL1 peptide upon ISC-30 induced dissociation from menin. […]
ISC30 was titrated into the wells of a 384-well plate containing fluorescence polarization buffer (40 mM HEPES pH 7.9, 150 mM NaCl, 0.01% Triton-X-100, 10 mM 2-mercaptoethanol), FITC-MLL peptide (1.5 nM), and His-SUMO-Menin-Δ460-519 (5 nM). […]

[7] = test system: mll1 in MCF7 cells (WT p53); assay: mll1 mRNA (RT-qPCR) and MLL1 protein (western blot) upon Nutlin treatment in MCF7 cells; conditions: Nutlin vs DMSO
Excerpt: (FIG. 13B) RT-qPCR analysis of mRNA expression level changes upon DMSO or Nutlin treatment in MCF7 cells. (FIG. 13C) Western blot analysis of MLL1 protein levels upon DMSO or Nutlin treatment in MCF7 cells.

[8] = test system: H3K9ac in MDA468 cells (p53 R273H); assay: Western blot of H3K9ac in MDA468 cells with mutant p53 knockdown; type: cell-based, human; conditions: etoposide treatment
Excerpt: FIG. 4A depicts western blots depicting changes in histone modification (H3K4me3 and H3K9ac) in MDA468 cell line in response to control or p53 knockdown. FIG. 4B depicts the change in the abundance of H3K4me3 and H3K9ac following p53 GOF mutant knockdown, as well as the functional implication that the Rho and Ras pathways are most affected by p53 GOF mutant knockdown.
Experiments were next conducted to evaluate the functional outcomes of the p53 GOF regulation of histone modification. FIG. 4A (left) depicts a Western blot analysis of the MDA468 cell line in response to control or p53 knockdown. It is shown that H3K9Ac decreases in response to knockdown of mutant p53, but no other histone modifications appear to be affected.

- concentration at which the compound started to inhibit menin-MLL1 interaction [6]: approximately 2 μM
- IC50 ([6]; normalized IC50, read-out: IC50, inhibition of menin-MLL1 interaction): 32 µM
Structure (SMILES): CN(CCN(C)c1ccc(N)cc1)c1ccc(N)cc1 [ISC-30, N,N′-bis(4-aminophenyl)-N,N′-dimethylethylenediamine]
- menin-MLL1 interaction at endogenous levels (co-IP) [1]: blocked menin-MLL1 interaction at endogenous levels in a dose-dependent manner
- menin-MLL1 interaction at endogenous levels (co-IP) [2]: blocked menin-MLL1 interaction at endogenous levels in a dose-dependent manner
- growth of AT-1 cells [3]: reduced
- p53 null cell growth (MDAH041 cells (p53 null)): very little effect
- expression of Hoxa cluster genes (HoxA5 and HoxA9 mRNA levels) [4]: decreased expression of Hoxa cluster genes
- GOF p53 cell growth [5]: dose-dependent inhibition

Structure (SMILES): COc1ccc(C2=NC(c3ccc(Cl)cc3)C(c3ccc(Cl)cc3)N2C(=O)N2CCNC(=O)C2)c(OC(C)C)c1 (stereo not shown) [Nutlin]
- mll1 expression upon stabilization and elevation of WT p53 levels [7]: not upregulated

Structure (SMILES): CN1CCN(c2ccc(-c3cccc(CN4CCOCC4)c3)cc2NC(=O)c2c[nH]c(=O)cc2C(F)(F)F)CC1 [OICR-9429]
- p53 null cell growth (MDAH041 cells (p53 null)): little effect
- GOF p53 cell growth [5]: dose-dependent inhibition

Structure (SMILES): CC1(C)CN=C(N2CCN(c3ncnc4sc(CC(F)(F)F)cc34)CC2)S1 [MI-2-2]
- GOF p53 cell growth [5]: dose-dependent inhibition

Structure (SMILES): COc1cc([C@@H]2c3cc4c(cc3[C@@H](O[C@@H]3O[C@@H]5CO[C@@H](C)O[C@H]5[C@H](O)[C@H]3O)[C@H]3COC(=O)[C@H]23)OCO4)cc(OC)c1O [etoposide]
- loss of H3K9ac in response to knockdown of mutant p53 [8]: not affected
